{
  "source": "patent US20230285402A1",
  "about": "“Compositions and Methods of Modulating Short-Chain Dehydrogenase Activity” (BOARD OF REGENTS OF THE UNIVERSITY OF TEXAS SYSTEM, priority 2013, published 2023)",
  "key": {"[1]": {"test": "Hepatocyte stability", "format": "in vitro ADME", "conditions": "in words", "procedure": "Time to inhibition refers to the time needed to inhibit the generation of NADH by 15-PGDH from the moment with drug is added into the reaction mix. Delta Tm refers to the shift in melting temperature of recombinant 15-PGDH in the presence of drug (with cofactor NADH also present). Concentration of Full Cell Line Reporter Induction refers to the concentration of drug that needs to be added to reporter cell line to achieve maximal induction of the 15-PGDH-luciferase gene fusion reporter cassette, as measured by luciferase assays. Hepatocyte stability refers to the half-life of compound in the presence of hepatocytes in culture. Toxicity refers to the concentration of compound needed to decrease cell numbers in a cell culture assay."}, "[2]": {"tested_on": "15-PGDH-luciferase fusion reporter in V9m, LS174T and V503 cells", "test": "15-PGDH-luciferase fusion reporter induction in colon cancer cell lines", "format": "cell-based", "conditions": "V9m, LS174T, V503"}, "[3]": {"tested_on": "C57BL/6J female mice", "test": "Survival after acetaminophen (Tylenol) 600 mg/kg IP (LD50), C57BL/6J female mice, SW033291 5 mg/kg IP", "format": "in vivo, mouse", "conditions": "for number of mice surviving: first dose immediately after Tylenol"}, "[4]": {"tested_on": "mice", "test": "Bone marrow transplant after 11Gy, SW033291 5 mg/kg IP twice daily: survival and blood/marrow counts", "format": "in vivo, mouse"}, "[5]": {"conditions": "day 5 after transplant, 500,000 donor cells"}},
  "data": [
    {"smiles": "CCCC[S+]([O-])c1sc2nc(-c3cccs3)cc(-c3ccccc3)c2c1N", "note": "(stereo not shown) [SW033291, 2-(butylsulfinyl)-4-phenyl-6-(thiophen-2-yl)thieno[2,3-b]pyridin-3-amine]", "values": [
      {"measurement": "Hepatocyte stability", "setting": "[1]", "value": "Stable > couple hrs"},
      {"measurement": "luciferase activity, in words", "setting": "[2]", "value": "increase luciferase activity"},
      {"measurement": "number of mice surviving", "setting": "[3]; 0 hrs, 1 dose/daily, cohort of 6", "value": 6},
      {"measurement": "number of mice surviving", "setting": "[3]; 0 hrs, 2 dose/daily, cohort of 6", "value": 6},
      {"measurement": "Survival (number of mice)", "setting": "[3]; 0 hrs, bid from 3 hours prior to acetaminophen, 6 doses, cohort of 6", "value": 6},
      {"measurement": "Survival (number of mice)", "setting": "[3]; 0 hrs, bid from 48 hours prior to acetaminophen, 9 doses, cohort of 12", "value": 12},
      {"measurement": "number of mice surviving", "setting": "[3]; 16 hr, 1 dose/daily, cohort of 6", "value": 6},
      {"measurement": "number of mice surviving", "setting": "[3]; 16 hr, 2 dose/daily, cohort of 6", "value": 6},
      {"measurement": "Survival (number of mice)", "setting": "[3]; 16 hr, bid from 3 hours prior to acetaminophen, 6 doses, cohort of 6", "value": 6},
      {"measurement": "Survival (number of mice)", "setting": "[3]; 16 hr, bid from 48 hours prior to acetaminophen, 9 doses, cohort of 12", "value": 12},
      {"measurement": "number of mice surviving", "setting": "[3]; 24 hrs, 1 dose/daily, cohort of 6", "value": 6},
      {"measurement": "number of mice surviving", "setting": "[3]; 24 hrs, 2 dose/daily, cohort of 6", "value": 6},
      {"measurement": "Survival (number of mice)", "setting": "[3]; 24 hrs, bid from 3 hours prior to acetaminophen, 6 doses, cohort of 6", "value": 5},
      {"measurement": "Survival (number of mice)", "setting": "[3]; 24 hrs, bid from 48 hours prior to acetaminophen, 9 doses, cohort of 12", "value": 12},
      {"measurement": "Survival (number of mice)", "setting": "[3]; 40 hrs, bid from 48 hours prior to acetaminophen, 9 doses, cohort of 12", "value": 11},
      {"measurement": "number of mice surviving", "setting": "[3]; 48 hrs, 2 dose/daily, cohort of 6", "value": 3},
      {"measurement": "Survival (number of mice)", "setting": "[3]; 48 hrs, bid from 3 hours prior to acetaminophen, 6 doses, cohort of 6", "value": 3},
      {"measurement": "Survival (number of mice)", "setting": "[3]; 48 hrs, bid from 48 hours prior to acetaminophen, 9 doses, cohort of 12", "value": 10},
      {"measurement": "number of mice surviving", "setting": "[3]; 64 hrs, 2 dose/daily, cohort of 6", "value": 3},
      {"measurement": "Survival (number of mice)", "setting": "[3]; 64 hrs, bid from 3 hours prior to acetaminophen, 6 doses, cohort of 6", "value": 3},
      {"measurement": "Survival (number of mice)", "setting": "[3]; 64 hrs, bid from 48 hours prior to acetaminophen, 9 doses, cohort of 12", "value": 10},
      {"measurement": "number of mice surviving", "setting": "[3]; 72 hrs, 2 dose/daily, cohort of 6", "value": 3},
      {"measurement": "Survival (number of mice)", "setting": "[3]; 72 hrs, bid from 3 hours prior to acetaminophen, 6 doses, cohort of 6", "value": 3},
      {"measurement": "Survival (number of mice)", "setting": "[3]; 72 hrs, bid from 48 hours prior to acetaminophen, 9 doses, cohort of 12", "value": 10},
      {"measurement": "number of mice surviving", "setting": "[3]; 88 hr, 2 dose/daily, cohort of 6", "value": 3},
      {"measurement": "Survival (number of mice)", "setting": "[3]; 88 hr, bid from 3 hours prior to acetaminophen, 6 doses, cohort of 6", "value": 3},
      {"measurement": "Survival (number of mice)", "setting": "[3]; 88 hr, bid from 48 hours prior to acetaminophen, 9 doses, cohort of 12", "value": 10},
      {"measurement": "number of mice surviving", "setting": "[3]; 96 hr, 2 dose/daily, cohort of 6", "value": 3},
      {"measurement": "Survival (number of mice)", "setting": "[3]; 96 hr, bid from 3 hours prior to acetaminophen, 6 doses, cohort of 6", "value": 3},
      {"measurement": "Survival (number of mice)", "setting": "[3]; 96 hr, bid from 48 hours prior to acetaminophen, 9 doses, cohort of 12", "value": 10},
      {"measurement": "number of mice surviving", "setting": "[3]; 112 hr, 2 dose/daily, cohort of 6", "value": 3},
      {"measurement": "Survival (number of mice)", "setting": "[3]; 112 hr, bid from 3 hours prior to acetaminophen, 6 doses, cohort of 6", "value": 3},
      {"measurement": "Survival (number of mice)", "setting": "[3]; 112 hr, bid from 48 hours prior to acetaminophen, 9 doses, cohort of 12", "value": 10},
      {"measurement": "number of mice surviving", "setting": "[3]; 120 hr, 2 dose/daily, cohort of 6", "value": 3},
      {"measurement": "Survival (number of mice)", "setting": "[3]; 120 hr, bid from 3 hours prior to acetaminophen, 6 doses, cohort of 6", "value": 3},
      {"measurement": "Survival (number of mice)", "setting": "[3]; 120 hr, bid from 48 hours prior to acetaminophen, 9 doses, cohort of 12", "value": 10},
      {"measurement": "survival vs control mice", "setting": "[3]; dosing begun immediately following acetaminophen, once or twice daily, 0-120 hours", "value": "No difference"},
      {"measurement": "median survival vs control", "setting": "[4]; 100,000 donor cells", "value": "approximate doubling of median survival"},
      {"measurement": "survival at 30 days", "setting": "[4]; 200,000 donor cells", "value": "all mice receiving 200,000 donor cells plus SW033291 survived"},
      {"measurement": "survival at 30 days", "setting": "[4]; 500,000 donor cells", "value": "all survived"},
      {"measurement": "total platelet count vs control", "setting": "[4]; [5]", "value": "significantly higher total platelet count"},
      {"measurement": "total white count vs control", "setting": "[4]; [5]", "value": "significantly higher total white count"},
      {"measurement": "platelet count", "setting": "[4]; day 8 after transplant, control 39,500", "value": "77,000"},
      {"measurement": "total white counts vs control", "setting": "[4]; day 12 after transplant", "value": "significantly greater total white counts"},
      {"measurement": "hemoglobin level", "setting": "[4]; day 12 after transplant, control 8.3", "value": 11.58},
      {"measurement": "neutrophil count", "setting": "[4]; day 12 after transplant, control 125", "value": 332}
    ]}
  ]
}
